# Measured values published in patent US4198506A, “2-Carboxyalkyl-2,3-dihydro-6-mercapto-s-triazolo[4,3-b]-pyridazin-3-ones” (Bristol-Myers Company, priority 1979, dated 1980).
# Values joined by “and” are separate entries in the source; they are usually repeats but may differ in a detail not shown here. Equal values may be shown once. Read-outs that look alike come from different tables or passages of the source.
# Assays:
# Shig. dysenteriae = assay: In vitro antibacterial activity (Steers' agar dilution MIC); assay type: cell-based; settings: Shigella dysenteriae, table 2 (BB-S493); Shig dysenteriae
# Serr. marcescens = assay: as above; assay type: cell-based; settings: Serratia marcescens; table 2 (BB-S493); Serr. marcescens A20019; read-out: MIC
# B. anthracis = assay: microbe, parasite or virus in culture; assay type: cell-based; settings: Bacillus anthracis, table 2 (BB-S493); B. anthracis A9504
# Pr. rettgeri = assay: In vitro antibacterial activity (Steers' agar dilution MIC); assay type: cell-based; settings: Providencia rettgeri, table 2 (BB-S493); Pr. rettgeri A15167
# St. faecalis = assay: as above; assay type: cell-based; settings: Enterococcus faecalis, table 2 (BB-S493); St. faecalis A9536; read-out: MIC
# Enterob. cloacae = assay: as above; assay type: cell-based; settings: table 2 (BB-S493); Enterob. cloacae A9656; read-out: MIC
# Pr. vulgaris = assay: as above; assay type: cell-based; settings: Proteus vulgaris, table 2 (BB-S493), read-out: MIC
# Pr. morganii = assay: as above; assay type: cell-based; settings: Morganella morganii, table 2 (BB-S493), read-out: MIC
# Shig. flexneri = assay: as above; assay type: cell-based; settings: Shigella flexneri; table 2 (BB-S493); Shig. flexneri A9684; read-out: MIC
# From the text: (§1) In vitro Antibacterial Activity of BB-S493 Compared with
# (§2) BB-S479 and Cefamandole (Determined by Steers' Agar Dilu-
# (§3) tion Method on Mueller-Hinton Agar Plate)
# (§4) In vitro antibacterial activity of BB-S 525 compared with
# (§5) BB-S 479 and cefamandole (determined by Steers' agar dilution
# (§6) method on Mueller-Hinton agar plate)
# E. coli = assay: as above; assay type: cell-based; settings: Escherichia coli, read-out: MIC
# From the text: as §1, §2, §3, §4, §5, §6
# Kl. pneumoniae = assay: as above; assay type: cell-based; settings: Klebsiella pneumoniae, table 2 (BB-S493)
# From the text: as §1, §2, §3, §4, §5, §6
# Shig. sonnei = assay: as above; assay type: cell-based; settings: Shigella sonnei, table 2 (BB-S493); Shig. sonnei A9516
# From the text: as §1, §2, §3, §4, §5, §6
# S. aureus = assay: as above; assay type: cell-based; settings: Staphylococcus aureus, table 2 (BB-S493)
# From the text: as §1, §2, §3, §4, §5, §6
# Sal. typhosa = assay: as above; assay type: cell-based; settings: table 2 (BB-S493); Sal. typhosa A9498
# From the text: as §1, §2, §3, §4, §5, §6
# S. aureus Smith = assay: In vivo activity (Mice, sc); settings: several determinations listed; for ED50: Staphylococcus aureus, read-out: PD50
# From the text: (§7) |In vivo Activity of BB-[…] and Related Compounds (Mice, sc) | (PD50 (mgm./kg.)
# E. coli Juhl = assay: In vivo activity (Mice, sc); settings: several determinations listed; for ED50: Escherichia coli, read-out: PD50
# From the text: as §7
# Pr. mirabilis = assay: In vitro antibacterial activity (Steers' agar dilution MIC); assay type: cell-based; settings: Proteus mirabilis, table 2 (BB-S493), read-out: MIC
# Sal. enteritidis = assay: as above; assay type: cell-based; settings: Salmonella enterica, table 2 (BB-S493), Sal. enteritidis A9531
# Ps. aeruginosa = assay: as above; assay type: cell-based; settings: table 2 (BB-S493)
# Proteus (indole +) = assay: In vitro activity (geometric mean MIC, serial dilution); assay type: cell-based; settings: read-out: Geometric Mean MIC
# S. marcescens = assay: as above; assay type: cell-based; settings: Serratia marcescens; 16 strains; Mueller-Hinton agar, inoculum 10^4 dilution; MIC cutoff 200 mcg./ml.; read-out: Geometric Mean MIC
# [1] = tested on: S. aureus (Methicillin-R); assay: as above; assay type: cell-based; settings: Staphylococcus aureus; 15 strains; Mueller-Hinton agar, inoculum 10^4 dilution; MIC cutoff 200 mcg./ml.
# S. pyogenes = assay: as above; assay type: cell-based; settings: Streptococcus pyogenes; 10 strains; Mueller-Hinton agar, inoculum 10^4 dilution; MIC cutoff 200 mcg./ml.
# Enterobacter (sensitive) = assay: as above; assay type: cell-based; settings: 3 strains, Mueller-Hinton agar, inoculum 10^4 dilution, MIC cutoff 200 mcg./ml., read-out: Geometric Mean MIC
# E. coli (sensitive) = assay: as above; assay type: cell-based; settings: Escherichia coli, read-out: Geometric Mean MIC
# Proteus (indole-) = assay: as above; assay type: cell-based; settings: read-out: Geometric Mean MIC
# Providencia sp. = assay: as above; assay type: cell-based; settings: 5 strains, Mueller-Hinton agar, inoculum 10^4 dilution, MIC cutoff 200 mcg./ml., read-out: Geometric Mean MIC
# D. pneumoniae = assay: as above; assay type: cell-based; settings: Streptococcus pneumoniae; 9 strains; Mueller-Hinton agar, inoculum 10^4 dilution; MIC cutoff 200 mcg./ml.
# [2] = tested on: S. aureus penicillinase+); assay: as above; assay type: cell-based; settings: Staphylococcus aureus, read-out: Geometric Mean MIC
# S. aureus (sensitive) = assay: as above; assay type: cell-based; settings: Staphylococcus aureus, read-out: Geometric Mean MIC
# [3] = tested on: Miscellaneous (Salmonella, Shigella, Citrobacter); assay: microbe, parasite or virus in culture; settings: read-out: Geometric Mean MIC
# [4] = tested on: Enterobacter (Cephalosporinase +); assay: In vitro activity (geometric mean MIC, serial dilution); assay type: cell-based; settings: 7 strains, Mueller-Hinton agar, inoculum 10^4 dilution, MIC cutoff 200 mcg./ml.
# [5] = tested on: E. coli (Penicillinase +); assay: as above; assay type: cell-based; settings: Escherichia coli; 7 strains; Mueller-Hinton agar, inoculum 10^4 dilution; MIC cutoff 200 mcg./ml.; read-out: Geometric Mean MIC
# rabbits = assay: Preliminary nephrotoxicity study; assay type: in vivo; settings: two rabbits, 100 mg./kg. intravenously
# Experimental: A preliminary nephrotoxicity study was carried out by administration of the test compound to a group of two rabbits at 100 mg./kg. intravenously.
# [6] = tested on: Proteus (indole +, cephalosporinase +); assay: In vitro activity (geometric mean MIC, serial dilution); assay type: cell-based; settings: 5 strains; Mueller-Hinton agar, inoculum 10^4 dilution; MIC cutoff 200 mcg./ml.; read-out: Geometric Mean MIC
# Klebsiella sp. = assay: as above; assay type: cell-based; settings: read-out: Geometric Mean MIC
structure (smiles),measurement,setting,value
"NCC1=C(CC(=O)N[C@@H]2C(=O)N3C(C(=O)O)=C(CSc4ccc5nn(CC(=O)O)c(=O)n5n4)CS[C@H]23)CC=CC1 [BB-S493, 7-[(2-Aminomethyl-1,4-cyclohexadienyl)acetamido]3-(2-N-carboxymethyl-s-triazolo[4,5-b]pyridazin-3-on-6-ylthiomethyl)-3-cephem-4-carboxylic Acid]",MIC,Shig. dysenteriae,0.05 µg/mL
same,MIC,Serr. marcescens,100 µg/mL
same,MIC,B. anthracis,0.0125 µg/mL
same,MIC,Pr. rettgeri,0.1 µg/mL
same,MIC,St. faecalis,100 µg/mL
same,MIC,Enterob. cloacae,6.3 µg/mL
same,MIC,Pr. vulgaris; Pr. vulgaris A9436,0.4 µg/mL
same,MIC,Pr. vulgaris; Pr. vulgaris A9699,6.3 µg/mL
same,MIC,Pr. morganii; Pr. morganii A9553,> 100 µg/mL
same,MIC,Pr. morganii; Pr. morganii A20031,0.4 µg/mL
same,MIC,Shig. flexneri,25 µg/mL
same,MIC,"E. coli; ATCC8739, table 2 (BB-S493), E. coli ATCC 8739",0.2 µg/mL
same,MIC,"E. coli; table 2 (BB-S493), E. coli A9660",0.1 µg/mL
same,MIC,"E. coli; table 2 (BB-S493), E. coli A15147",6.3 µg/mL
same,MIC,"E. coli; table 2 (BB-S493), E. coli A15810",0.2 µg/mL
same,MIC,"E. coli; table 2 (BB-S493), E. coli BX-1373",0.4 µg/mL
same,MIC,"E. coli; table 2 (BB-S493), E. coli Juhl A15119",0.2 µg/mL
same,MIC,"E. coli; table 2 (BB-S493), E. coli NIHJ",0.1 µg/mL
same,MIC,Kl. pneumoniae; Kl. pneumoniae A9678,0.4 µg/mL
same,MIC,Kl. pneumoniae; Kl. pneumoniae A9867,0.2 µg/mL
same,MIC,Kl. pneumoniae; Kl. pneumoniae A9977,0.2 µg/mL
same,MIC,Kl. pneumoniae; Kl. pneumoniae A15130,0.2 µg/mL
same,MIC,Shig. sonnei,0.05 µg/mL
same,MIC,S. aureus; S. aureus A9497,0.2 µg/mL
same,MIC,S. aureus; S. aureus BX-1633 A9606,0.4 µg/mL
same,MIC,S. aureus; S. aureus Smith A9537,0.4 µg/mL
same,MIC,Sal. typhosa,0.1 µg/mL
same,ED50,S. aureus Smith,0.29 mg/kg
same,ED50,E. coli Juhl,0.27 mg/kg
same,MIC,Pr. mirabilis; Pr. mirabilis A9554,0.2 µg/mL
same,MIC,Pr. mirabilis; Pr. mirabilis A9900,0.2 µg/mL
same,MIC,Sal. enteritidis,0.1 µg/mL
same,MIC,"Ps. aeruginosa; Pseudomonas aeruginosa, Ps. aeruginosa A9843, read-out: MIC",> 100 µg/mL
same,MIC,Ps. aeruginosa; Ps. aerugionsa A9930,> 100 µg/mL
NCc1ccccc1CC(=O)N[C@@H]1C(=O)N2C(C(=O)O)=C(CSc3ccc4nn(CC(=O)O)c(=O)n4n3)CS[C@H]12 [BB-S469],MIC,Proteus (indole +),0.5 µg/mL
same,MIC,S. marcescens,130 µg/mL
same,MIC,[1],30 µg/mL
same,MIC,S. pyogenes,0.05 µg/mL
same,MIC,Enterobacter (sensitive),1 µg/mL
same,MIC,E. coli (sensitive),0.3 µg/mL
same,MIC,"Proteus (indole-); 6 strains, Mueller-Hinton agar, inoculum 10^4 dilution, MIC cutoff 200 mcg./ml.",0.6 µg/mL
same,MIC,Providencia sp.,4.2 µg/mL
same,MIC,D. pneumoniae,0.03 µg/mL
same,MIC,[2],1.2 µg/mL
same,MIC,S. aureus (sensitive),0.4 µg/mL
same,MIC,[3],0.7 µg/mL
same,MIC,[4],4.7 µg/mL
same,ED50,S. aureus Smith,0.19 mg/kg
same,PD50,S. aureus Smith,0.16 mgm./kg. and 0.29 mgm./kg. and 0.2 mgm./kg.
same,ED50,E. coli Juhl,0.19 mg/kg
same,PD50,E. coli Juhl,0.24 mgm./kg. and 0.15 mgm./kg.
same,MIC,[5],11 µg/mL
same,nephrotoxic potential,rabbits,little nephrotoxic potential
same,MIC,[6],11 µg/mL
same,MIC,Klebsiella sp.,0.9 µg/mL
"NCc1ccsc1CC(=O)N[C@@H]1C(=O)N2C(C(=O)O)=C(CSc3ccc4nn(CC(=O)O)c(=O)n4n3)CS[C@H]12 [BB-S483, 7-(3-Aminomethyl-2-thienylacetamido)-3-(2-carboxymethyl-2,3-dihydro-s-triazolo[4,3-b]pyridazin-3-on-6-ylthiomethyl)-3-cephem-4-carboxylic Acid]",MIC,Proteus (indole +),0.4 µg/mL
same,MIC,S. marcescens,81 µg/mL
same,MIC,[1],48 µg/mL
same,MIC,S. pyogenes,0.08 µg/mL
same,MIC,Enterobacter (sensitive),1.3 µg/mL
same,MIC,E. coli (sensitive),0.3 µg/mL
same,MIC,Proteus (indole-),0.7 µg/mL
same,MIC,Providencia sp.,2.1 µg/mL
same,MIC,D. pneumoniae,0.04 µg/mL
same,MIC,"[2]; 13 strains, Mueller-Hinton agar, inoculum 10^4 dilution, MIC cutoff 200 mcg./ml.",1.1 µg/mL
same,MIC,S. aureus (sensitive),0.3 µg/mL
same,MIC,[3],0.9 µg/mL
same,MIC,[4],5.2 µg/mL
same,ED50,S. aureus Smith,0.34 mg/kg
same,ED50,E. coli Juhl,0.15 mg/kg
same,MIC,[5],21 µg/mL
same,MIC,[6],17 µg/mL
same,MIC,"Klebsiella sp.; 12 strains, Mueller-Hinton agar, inoculum 10^4 dilution, MIC cutoff 200 mcg./ml.",1.1 µg/mL
